This test deals with BDF1 mice, Adenocarcinoma 755 s.c., tumor weight T/C. The test can be described thus: NCI In Vivo Anticancer Drug Screen. Data for tumor model Adenocarcinoma 755 (subcutaneous) in B6D2F1 (BDF1) mice. Particulars: endpoint: mean tumor weight, higher = larger tumour. In outline: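 Values express treated (T) relative to vehicle-dosed control (C) animals, based on survival or tumour size measured after compound treatment of mice bearing a transplanted tumour.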

Several values for one entry are separate records, joined by “and”; a condition that tells them apart may be missing. Equal values may be shown once.

For orientation: T/C means the result in the treated group divided by that in the control group, in per cent.

Take `C[C@@H]1C[C@@H]([C@H](O)CC2CC(=O)NC(=O)C2)C(=O)[C@@H](C)C1`: the T/C is, setting by setting: (dose: 5.0 mg/kg/injection, schedule: Q#A X022 (ip), vehicle: alkali diluted with saline) 103 % of control; (dose: 6.63 mg/kg/injection, schedule: Q01DX011 (ip), vehicle: carboxymethylcellulose (CMC)) 51 % of control; (dose: 7.5 mg/kg/injection, schedule: Q01DX011 (ip), vehicle: methylcellulose (MC)) 89 % of control; (dose: 8.63 mg/kg/injection, schedule: Q01DX011 (ip), vehicle: carboxymethylcellulose (CMC)) 87 % of control; (dose: 9.5 mg/kg/injection, schedule: Q01DX011 (ip), vehicle: carboxymethylcellulose (CMC)) 103 % of control and 117 % of control; (dose: 10.0 mg/kg/injection, schedule: Q01DX011 (im), vehicle: alkali diluted with saline) 79 % of control. Besides, the T/C was 66 % of control and 75 % of control (dose: 10.0 mg/kg/injection, schedule: Q01DX011 (ip), vehicle: alkali diluted with saline); 62 % of control (dose: 10.0 mg/kg/injection, schedule: Q01DX011 (oral), vehicle: alkali diluted with saline); 99 % of control (dose: 10.0 mg/kg/injection, schedule: Q01DX011 (sc), vehicle: steriod suspending solution); 64 % of control (dose: 10.0 mg/kg/injection, schedule: Q#A X022 (ip), vehicle: alkali diluted with saline); 71 % of control (dose: 12.5 mg/kg/injection, schedule: Q01DX011 (ip), vehicle: methylcellulose (MC)); 120 % of control (dose: 13.25 mg/kg/injection, schedule: Q01DX011 (ip), vehicle: carboxymethylcellulose (CMC)). Further, the T/C (dose: 13.8 mg/kg/injection, schedule: Q01DX011 (ip), vehicle: carboxymethylcellulose (CMC)) is 38 % of control; the T/C (dose: 15.0 mg/kg/injection, schedule: Q01DX011 (ip), vehicle: methylcellulose (MC)) was 49 % of control; the T/C (dose: 17.25 mg/kg/injection, schedule: Q01DX011 (ip), vehicle: carboxymethylcellulose (CMC)) is 50 % of control and 65 % of control; the T/C (dose: 19.0 mg/kg/injection, schedule: Q01DX011 (ip), vehicle: carboxymethylcellulose (CMC)) was 56 % of control and 59 % of control; the T/C (dose: 20.0 mg/kg/injection, schedule: Q01DX006 (iv), vehicle: alkali diluted with saline) was 91 % of control; the T/C (dose: 20.0 mg/kg/injection, schedule: Q01DX011 (im), vehicle: alkali diluted with saline) is 76 % of control. For the same molecule, the T/C runs as follows: (dose: 20.0 mg/kg/injection, schedule: Q01DX011 (oral), vehicle: alkali diluted with saline) 63 % of control; (dose: 20.0 mg/kg/injection, schedule: Q01DX011 (sc), vehicle: steriod suspending solution) 48 % of control; (dose: 23.0 mg/kg/injection, schedule: Q01DX011 (ip), vehicle: carboxymethylcellulose (CMC)) 31 % of control; (dose: 25.0 mg/kg/injection, schedule: Q01DX011 (ip), vehicle: methylcellulose (MC)) 47 % of control; (dose: 26.5 mg/kg/injection, schedule: Q01DX011 (ip), vehicle: carboxymethylcellulose (CMC)) 50 % of control; (dose: 30.0 mg/kg/injection, schedule: Q01DX011 (ip), vehicle: methylcellulose (MC)) 33 % of control. Besides, the T/C is 117 % of control (dose: 30.0 mg/kg/injection, schedule: Q03DX004 (ip), vehicle: alkali diluted with saline); 12 % of control and 13 % of control (dose: 34.5 mg/kg/injection, schedule: Q01DX011 (ip), vehicle: carboxymethylcellulose (CMC)); 27 % of control and 32 % of control (dose: 38.0 mg/kg/injection, schedule: Q01DX011 (ip), vehicle: carboxymethylcellulose (CMC)); 95 % of control and 76 % of control (dose: 40.0 mg/kg/injection, schedule: Q01DX006 (iv), vehicle: alkali diluted with saline); 18 % of control and 42 % of control (dose: 40.0 mg/kg/injection, schedule: Q01DX011 (oral), vehicle: alkali diluted with saline); 48 % of control (dose: 40.0 mg/kg/injection, schedule: Q01DX011 (sc), vehicle: steriod suspending solution). For the same molecule, the T/C (dose: 40.0 mg/kg/injection, schedule: Q#A X022 (ip), vehicle: alkali diluted with saline) was 22 % of control and 36 % of control; the T/C (dose: 50.0 mg/kg/injection, schedule: Q01DX001 (ip), vehicle: alkali diluted with saline) is 88 % of control; the T/C (dose: 50.0 mg/kg/injection, schedule: Q01DX011 (ip), vehicle: methylcellulose (MC)) is 13 % of control; the T/C (dose: 60.0 mg/kg/injection, schedule: Q01DX011 (ip), vehicle: methylcellulose (MC)) was 6 % of control; the T/C (dose: 60.0 mg/kg/injection, schedule: Q03DX004 (ip), vehicle: alkali diluted with saline) is 47 % of control; the T/C (dose: 80.0 mg/kg/injection, schedule: Q01DX006 (iv), vehicle: alkali diluted with saline) was 92 % of control and 93 % of control. Also, the T/C runs as follows: (dose: 80.0 mg/kg/injection, schedule: Q01DX011 (im), vehicle: alkali diluted with saline) 4 % of control and 9 % of control; (dose: 80.0 mg/kg/injection, schedule: Q01DX011 (ip), vehicle: alkali diluted with saline) 9 % of control and 21 % of control; (dose: 100.0 mg/kg/injection, schedule: Q01DX001 (ip), vehicle: alkali diluted with saline) 63 % of control; (dose: 120.0 mg/kg/injection, schedule: Q03DX004 (ip), vehicle: alkali diluted with saline) 41 % of control; (dose: 160.0 mg/kg/injection, schedule: Q01DX006 (iv), vehicle: alkali diluted with saline) 24 % of control; (dose: 200.0 mg/kg/injection, schedule: Q01DX001 (ip), vehicle: alkali diluted with saline) 186 % of control. For the same molecule, the T/C (dose: 400.0 mg/kg/injection, schedule: Q01DX001 (ip), vehicle: alkali diluted with saline) is 89 % of control.

As for `CCOC(=O)/C(C)=N\Nc1cc(Cl)nc(N)n1`, the T/C (dose: 112.0 mg/kg/injection, schedule: Q01DX011 (ip), vehicle: methylcellulose (MC)) is 200 % of control.

For the molecule `CC(=O)[C@H]1CC[C@H]2[C@@H]3CCC4=CC(=O)[C@H](C)C[C@]4(C)[C@@]3(F)C(=O)C[C@]12C`, the T/C reads like this: (dose: 1.5 mg/kg/injection, schedule: Q01DX011 (sc), vehicle: steriod suspending solution) 120 % of control; (dose: 3.12 mg/kg/injection, schedule: Q01DX011 (sc), vehicle: steriod suspending solution) 77 % of control; (dose: 6.0 mg/kg/injection, schedule: Q01DX011 (sc), vehicle: steriod suspending solution) 69 % of control; (dose: 6.25 mg/kg/injection, schedule: Q01DX011 (sc), vehicle: steriod suspending solution) 79 % of control; (dose: 12.0 mg/kg/injection, schedule: Q01DX011 (sc), vehicle: steriod suspending solution) 36 % of control and 56 % of control; (dose: 12.5 mg/kg/injection, schedule: Q01DX011 (sc), vehicle: steriod suspending solution) 79 % of control. Further, the T/C by setting is: (dose: 25.0 mg/kg/injection, schedule: Q01DX011 (sc), vehicle: steriod suspending solution) 36 % of control and 47 % of control and 58 % of control; (dose: 50.0 mg/kg/injection, schedule: Q01DX011 (sc), vehicle: steriod suspending solution) 33 % of control and 39 % of control; (dose: 51.0 mg/kg/injection, schedule: Q01DX011 (sc), vehicle: steriod suspending solution) 21 % of control; (dose: 75.0 mg/kg/injection, schedule: Q01DX011 (sc), vehicle: steriod suspending solution) 21 % of control; (dose: 100.0 mg/kg/injection, schedule: Q01DX011 (sc), vehicle: steriod suspending solution) 9 % of control and 16 % of control and 22 % of control; (dose: 200.0 mg/kg/injection, schedule: Q01DX011 (sc), vehicle: steriod suspending solution) 6 % of control and 14 % of control.

In the case of `Nc1nc(SCc2ccc(Cl)cc2Cl)c2ncn(C3OC(CO)C(O)C3O)c2n1` (centres undefined), the T/C reads like this: (dose: 4.69 mg/kg/injection, schedule: Q01DX011 (ip), vehicle: methylcellulose (MC)) 51 % of control; (dose: 9.38 mg/kg/injection, schedule: Q01DX011 (ip), vehicle: methylcellulose (MC)) 49 % of control; (dose: 18.75 mg/kg/injection, schedule: Q01DX011 (ip), vehicle: methylcellulose (MC)) 21 % of control; (dose: 37.5 mg/kg/injection, schedule: Q01DX011 (ip), vehicle: methylcellulose (MC)) 2 % of control.

For `CC(=O)OCC1OC(n2c(Br)nc3c(N)ncnc32)C(OC(C)=O)C1OC(C)=O` (centres undefined), the T/C is 88 % of control (dose: 30.0 mg/kg/injection, schedule: Q01DX011 (ip), vehicle: carboxymethylcellulose (CMC)); 88 % of control (dose: 60.0 mg/kg/injection, schedule: Q01DX011 (ip), vehicle: carboxymethylcellulose (CMC)); 104 % of control (dose: 120.0 mg/kg/injection, schedule: Q01DX011 (ip), vehicle: carboxymethylcellulose (CMC)); 113 % of control (dose: 240.0 mg/kg/injection, schedule: Q01DX011 (ip), vehicle: carboxymethylcellulose (CMC)).

Consider `CCCCN(C)/N=N/c1nc[nH]c1C(N)=O`, for which the T/C (dose: 80.0 mg/kg/injection, schedule: Q01DX011 (ip), vehicle: carboxymethylcellulose (CMC)) was 4 % of control.

`CN(C)N=Nc1ccc(CCC(=O)NN)cc1`: the T/C (dose: 10.0 mg/kg/injection, schedule: Q01DX011 (ip), vehicle: saline) was 63 % of control; the T/C (dose: 15.0 mg/kg/injection, schedule: Q01DX011 (ip), vehicle: saline) was 56 % of control; the T/C (dose: 20.0 mg/kg/injection, schedule: Q01DX011 (ip), vehicle: saline) was 44 % of control; the T/C (dose: 31.0 mg/kg/injection, schedule: Q01DX011 (ip), vehicle: saline) is 40 % of control.

(Values after PubChem BioAssay AID180 (DTP/NCI, 2004).)
